Reference: the CheMixHub ionic liquid set
± gives the uncertainty stated by the source.

Test: xn = mol fraction of the nth substance listed

CC(=O)[O-].CC[n+]1ccn(C)c1 + O
Details	electrical conductivity [S/m]	viscosity [mPa·s]
293.1 K, 101 kPa, x2 = 0.517	–	59.4 ± 3
293.1 K, 101 kPa, x2 = 0.578	–	51.1 ± 2.3
293.1 K, 101 kPa, x2 = 0.705	–	32.7 ± 1.5
293.15 K, 100 kPa, x1 = 0.7987	0.314 ± 0.0063	–
293.15 K, 100 kPa, x1 = 1	0.223 ± 0.0045	–
293.15 K, 100 kPa, x2 = 0.2088	–	138.9 ± 6.2
293.15 K, 101.3 kPa, x2 = 0	0.243 ± 0.001	–
293.15 K, 101.3 kPa, x2 = 0.0774	0.327 ± 0.001	–
293.15 K, 101.3 kPa, x2 = 0.1429	0.562 ± 0.001	–
293.15 K, 101.3 kPa, x2 = 0.3065	1.016 ± 0.001	–
293.15 K, 101.3 kPa, x2 = 0.4381	1.537 ± 0.001	–
293.15 K, 101.3 kPa, x2 = 0.5278	2.03 ± 0.001	–
293.15 K, 101.3 kPa, x2 = 0.7257	4.136 ± 0.001	–
293.15 K, 101.3 kPa, x2 = 0.8083	5.417 ± 0.001	–
293.15 K, 101.3 kPa, x2 = 0.8554	6.014 ± 0.001	–
293.15 K, 101.3 kPa, x2 = 0.8891	5.902 ± 0.001	–
293.15 K, 101.3 kPa, x2 = 0.9279	2.979 ± 0.001	–
293.15 K, 101.3 kPa, x2 = 0.9308	2.707 ± 0.001	–
293.15 K, 101.3 kPa, x2 = 0.9425	1.866 ± 0.001	–
293.15 K, 101.3 kPa, x2 = 0.9559	1.121 ± 0.001	–
293.15 K, 101.3 kPa, x2 = 0.9625	0.8 ± 0.001	–
298.15 K, 101 kPa, x2 = 0	–	132.9 ± 6
298.15 K, 101 kPa, x2 = 0.0992	–	109.7 ± 4.8
298.15 K, 101 kPa, x2 = 0.266	–	85 ± 3
298.15 K, 101 kPa, x2 = 0.4207	–	59.5 ± 2.4
298.15 K, 101 kPa, x2 = 0.5408	–	44.4 ± 1.8
298.15 K, 101 kPa, x2 = 0.6135	–	35.9 ± 1.5
303.15 K, 100 kPa, x1 = 0.2003	2.37 ± 0.048	–
303.15 K, 100 kPa, x1 = 0.7987	0.527 ± 0.011	–
303.15 K, 100 kPa, x2 = 0.4	–	52.7 ± 1.6
303.15 K, 101 kPa, x2 = 0.132	–	84 ± 3
313.15 K, 100 kPa, x2 = 0.2088	–	47.2 ± 1.5
313.15 K, 100 kPa, x2 = 0.4	–	33.9 ± 1.1
313.15 K, 101 kPa, x2 = 0.188	–	46.7 ± 1.4
313.15 K, 101 kPa, x2 = 0.5408	–	23.49 ± 0.96
323.15 K, 100 kPa, x1 = 0.5984	1.63 ± 0.033	–
323.15 K, 100 kPa, x2 = 0.2088	–	30.12 ± 0.97
323.15 K, 101 kPa, x2 = 0.132	–	33.1 ± 1.2
328.15 K, 101 kPa, x2 = 0.0992	–	27 ± 1.1
328.15 K, 101 kPa, x2 = 0.4207	–	17.5 ± 0.72
328.15 K, 101 kPa, x2 = 0.6805	–	9.43 ± 0.38
328.15 K, 101 kPa, x2 = 0.8134	–	5.3 ± 0.22
333.1 K, 101 kPa, x2 = 0.517	–	12.27 ± 0.7
333.1 K, 101 kPa, x2 = 0.578	–	11 ± 0.61
333.15 K, 100 kPa, x1 = 0.9481	1.31 ± 0.026	–
333.15 K, 100 kPa, x1 = 1	1.31 ± 0.026	–
333.15 K, 101 kPa, x2 = 0.188	–	21.4 ± 0.6
333.15 K, 101 kPa, x2 = 0.266	–	19.5 ± 0.6
343.15 K, 100 kPa, x1 = 1	1.75 ± 0.035	–
343.15 K, 100 kPa, x2 = 0.2088	–	15.07 ± 0.48
343.15 K, 100 kPa, x2 = 0.4	–	12.24 ± 0.39
343.15 K, 100 kPa, x2 = 0.8023	–	3.8 ± 0.12
343.15 K, 101 kPa, x2 = 0.222	–	14.52 ± 0.61
343.15 K, 101 kPa, x2 = 0.5408	–	8.98 ± 0.37
343.15 K, 101 kPa, x2 = 0.6805	–	6.22 ± 0.25
353.15 K, 101 kPa, x2 = 0.102	–	12.96 ± 0.4
353.15 K, 101 kPa, x2 = 0.132	–	12.58 ± 0.41
353.15 K, 101 kPa, x2 = 0.188	–	11.89 ± 0.34
353.15 K, 101 kPa, x2 = 0.355	–	10.11 ± 0.28
363.15 K, 101 kPa, x2 = 0.072	–	10.28 ± 0.33
363.15 K, 101 kPa, x2 = 0.102	–	10.09 ± 0.31
363.15 K, 101 kPa, x2 = 0.132	–	9.82 ± 0.32
373.15 K, 101 kPa, x2 = 0.188	–	7.48 ± 0.22

CC[n+]1ccn(C)c1.CS(=O)(=O)[O-] + O
100 kPa, frequency 0.003 MHz
Details	electrical conductivity [S/m]
293.15 K, x1 = 0.0165	3.25 ± 0.066
303.15 K, x1 = 0.1122	4.74 ± 0.095
313.15 K, x1 = 0.3752	2.25 ± 0.045
323.15 K, x1 = 0.0489	8.42 ± 0.17
323.15 K, x1 = 0.2034	5.15 ± 0.1
323.15 K, x1 = 0.3752	2.92 ± 0.059
323.15 K, x1 = 0.9339	0.827 ± 0.017
343.15 K, x1 = 0.0165	7.59 ± 0.15
343.15 K, x1 = 0.0489	11.4 ± 0.23
353.15 K, x1 = 0.0165	8.61 ± 0.17
353.15 K, x1 = 0.0489	13 ± 0.26
353.15 K, x1 = 0.3752	5.32 ± 0.11
353.15 K, x1 = 0.9339	2.01 ± 0.04

Details	viscosity [mPa·s]
293.15 K, 100 kPa, x1 = 0.0674	3.026 ± 0.042
298.15 K, 102.2 kPa, x1 = 0.75	42.2 ± 2.9
303.15 K, 100 kPa, x1 = 0.0177	1.135 ± 0.015
303.15 K, 100 kPa, x1 = 0.9357	115 ± 2.6
303.15 K, 102.2 kPa, x1 = 0.75	34.3 ± 2.3
313.15 K, 100 kPa, x1 = 0.0357	1.237 ± 0.017
313.15 K, 100 kPa, x1 = 0.1089	3.068 ± 0.043
313.15 K, 102.2 kPa, x1 = 0.75	24 ± 1.6
323.15 K, 100 kPa, x1 = 0.0177	0.756 ± 0.01
323.15 K, 100 kPa, x1 = 0.0357	1.012 ± 0.014
323.15 K, 100 kPa, x1 = 0.4263	12.22 ± 0.2
328.15 K, 102.2 kPa, x1 = 0.75	15.7 ± 1.1
353.15 K, 100 kPa, x1 = 0.0674	0.879 ± 0.012
353.15 K, 100 kPa, x1 = 0.1848	2.346 ± 0.033

C[C@H](N)C(=O)[O-].C[N+](C)(C)CCO + O
Details	viscosity [mPa·s]
287.97 K, 100 kPa, x1 = 0.2939	177 ± 43
288.1 K, 100 kPa, x1 = 1	5100 ± 1300
289.25 K, 100 kPa, x1 = 0.5975	970 ± 240
289.31 K, 100 kPa, x1 = 0.692	1467 ± 360
289.96 K, 100 kPa, x1 = 1	3700 ± 1000
290.48 K, 100 kPa, x1 = 0.2939	153 ± 37
290.53 K, 100 kPa, x1 = 0.7994	1752 ± 440
292.92 K, 100 kPa, x1 = 0.097	8.7 ± 2.1
292.92 K, 100 kPa, x1 = 0.4948	490 ± 120
292.92 K, 100 kPa, x1 = 0.5975	710 ± 180
292.92 K, 100 kPa, x1 = 0.692	1030 ± 250
294.1 K, 100 kPa, x1 = 0.097	8.4 ± 2
294.1 K, 100 kPa, x1 = 0.4948	450 ± 110
294.1 K, 100 kPa, x1 = 0.692	930 ± 230
294.1 K, 100 kPa, x1 = 0.7994	1250 ± 310
295.27 K, 100 kPa, x1 = 0.7994	1129 ± 280
296.45 K, 100 kPa, x1 = 0.4948	377 ± 92
296.45 K, 100 kPa, x1 = 0.7994	1016 ± 250
297.63 K, 100 kPa, x1 = 0.097	7.4 ± 1.8
298.1 K, 101.3 kPa, x1 = 0.2727	33 ± 6.6
298.81 K, 100 kPa, x1 = 0.2939	90 ± 22
298.81 K, 100 kPa, x1 = 0.7994	840 ± 210
299.98 K, 100 kPa, x1 = 0.097	6.9 ± 1.6
299.98 K, 100 kPa, x1 = 0.3748	156 ± 38
300.27 K, 100 kPa, x1 = 1	1538 ± 390
301.16 K, 100 kPa, x1 = 0.692	530 ± 130
302.34 K, 100 kPa, x1 = 0.3748	135 ± 33
303.51 K, 100 kPa, x1 = 0.3748	126 ± 30
303.51 K, 100 kPa, x1 = 0.7994	580 ± 140
304.72 K, 100 kPa, x1 = 1	1206 ± 300
305.86 K, 100 kPa, x1 = 0.3748	109 ± 26
305.86 K, 100 kPa, x1 = 0.4948	200 ± 48
305.86 K, 100 kPa, x1 = 0.8993	680 ± 170
307.04 K, 100 kPa, x1 = 0.3748	103 ± 25
307.04 K, 100 kPa, x1 = 0.5975	254 ± 62
307.04 K, 100 kPa, x1 = 0.8993	630 ± 150
313 K, 101.3 kPa, x1 = 0.1233	5.7 ± 1.1
323.2 K, 100 kPa, x1 = 1	337 ± 85
333 K, 101.3 kPa, x1 = 0.05881	2.27 ± 0.46
